2 molecules from patent US20200399262A1, “COMPOUNDS FOR INHIBITING PROTEIN DEGRADATION AND METHODS OF USE THEREOF IN THE TREATMENT OF CANCER” (PI Therapeutics Ltd, priority 2018, published 2020) can be followed below.

pEC50: −log10 of the molar value. ≈ marks a conversion by molar mass, not a printed value.

One data set concerns EKVX. The data set can be described thus: Cell viability panel, CyQUANT Direct. Type of data set: cell-based. The conditions noted are these: Homo sapiens, Lung cancer, 48 hours, read-out: Compound EC50. On the procedure: (§1) Cell viability panel studies. Cells were diluted in the corresponding ATCC recommended medium and dispensed in a 384-well plate, depending on the cell line used, at a density of 200-6400 cells per well. For each used cell line, the optimal cell density was used. Compound was serially diluted and 8 concentration (0.04-32 μM) were added to the cells for 72 h exposure. At t=end, of ATPlite 1Step™ (PerkinElmer) were used to calculate cell viability. Cell lines marked with asterisk were seeded 24 h prior to treatment in 96-well plates at the density range of 5,000-40,000 cells/well, according to duplication rate, in RPMI 1640 medium containing 10% fetal bovine serum and 2 mM L-glutamine. Compounds were diluted from 10 mM DMSO stock and treatment was applied at the range of 0.04-1 μM. Following incubation at 37° C. for 48 hours with increasing concentrations of the compounds, viability was determined with CyQUANT® Direct Assay Kit (Invitrogen). Output intensities were normalized to values after treatment with DMSO alone, and EC50 values were calculated using the absorbance measurements [time zero, (Tz), growth control, (C), plus the test growth at the four drug concentration levels (Ti)] as follows: [(Ti−Tz)/(C−Tz)]×100 for concentrations for which Ti>/=Tz; [(Ti−Tz)/Tz]×100 for concentrations for which Ti−<Tz.

Another data set deals with HOP-62. Put plainly: Cell viability panel, CyQUANT Direct. Type of data set: cell-based. Particulars: Homo sapiens, Lung cancer, 48 hours, read-out: Compound EC50. As to the method:
as §1

The next data set deals with KM-12. The data set can be described thus: Cell viability panel, CyQUANT Direct. Type of data set: cell-based. Particulars: Homo sapiens, KM12, Colon cancer, 48 hours, read-out: Compound EC50. As to the method: as §1
The next data set concerns M14. Put plainly: Cell viability panel, CyQUANT Direct. Type of data set: cell-based. Particulars: Homo sapiens, Melanoma, 48 hours, read-out: Compound EC50. On the procedure:
as §1

A further data set concerns NCI-H23. The data set can be described thus: Cell viability panel, CyQUANT Direct. Type of data set: cell-based. The conditions noted are these: Homo sapiens, Lung cancer, 48 hours, read-out: Compound EC50. As to the method:
as §1

The test system of a further data set is NCI-H522. The data set can be described thus: Cell viability panel, CyQUANT Direct. The conditions noted are these: Homo sapiens, Lung Cancer, 48 hours, read-out: Compound EC50. Type of data set: cell-based. On the procedure:
as §1

In the next data set the test system is SF-295. Put plainly: Cell viability panel, CyQUANT Direct. Type of data set: cell-based. Particulars: Homo sapiens, CNS, 48 hours, read-out: Compound EC50. On the procedure:
as §1

Data set [1] relates to SN12C. Put plainly: Cell viability panel, CyQUANT Direct. Particulars: Homo sapiens, Renal cancer, 48 hours, read-out: Compound EC50. Type of data set: cell-based. As to the method: as §1
The subject of a further data set is U251. Put plainly: Cell viability panel, CyQUANT Direct. Type of data set: cell-based. The conditions noted are these: Homo sapiens, U-251, CNS, 48 hours, read-out: Compound EC50. On the procedure:
as §1

In data set [2] the test system is UACC-257. The data set can be described thus: Cell viability panel, CyQUANT Direct. Type of data set: cell-based. Particulars: Homo sapiens, Melanoma, 48 hours, read-out: Compound EC50. On the procedure: as §1
A further data set concerns MDA-MB-468. Put plainly: NCI60 screen cytotoxicity. Particulars: Homo sapiens, Breast cancer, read-out: Compound B1 EC50. Type of data set: cell-based.
Another data set concerns MOLT-4. The data set can be described thus: NCI60 screen cytotoxicity. The conditions noted are these: Homo sapiens, Leukemia, read-out: Compound B1 EC50. Type of data set: cell-based.
The test system of a further data set is HOP-92. Put plainly: NCI60 screen cytotoxicity. Type of data set: cell-based. Particulars: Homo sapiens, Lung cancer, read-out: Compound B1 EC50.
Another data set relates to 786-0. The data set can be described thus: NCI60 screen cytotoxicity. Type of data set: cell-based. The conditions noted are these: Homo sapiens, Renal cancer, read-out: Compound B1 EC50.
In a further data set the test system is ACHN. The data set can be described thus: NCI60 screen cytotoxicity. The conditions noted are these: Homo sapiens, Renal cancer, read-out: Compound B1 EC50. Type of data set: cell-based.
Data set [3] has as its system SN12C. The data set can be described thus: NCI60 screen cytotoxicity. Type of data set: cell-based. Particulars: Homo sapiens, Renal cancer, read-out: Compound B1 EC50.
The next data set deals with PC-3. The data set can be described thus: NCI60 screen cytotoxicity. Particulars: Homo sapiens, Prostate cancer, read-out: Compound B1 EC50. Type of data set: cell-based.
The subject of a further data set is MDA-MB-435. Put plainly: NCI60 screen cytotoxicity. Type of data set: cell-based. The conditions noted are these: Homo sapiens, Melanoma, read-out: Compound B1 EC50.
The next data set has as its system SK-MEL-5. Put plainly: NCI60 screen cytotoxicity. Type of data set: cell-based. The conditions noted are these: Homo sapiens, Melanoma, read-out: Compound B1 EC50.
In data set [4] the test system is UACC-257. The data set can be described thus: NCI60 screen cytotoxicity. Particulars: Homo sapiens, Melanoma, read-out: Compound B1 EC50. Type of data set: cell-based.
The test system of the next data set is UACC-62. Put plainly: NCI60 screen cytotoxicity. Type of data set: cell-based. Particulars: Homo sapiens, Melanoma, read-out: Compound B1 EC50.
The test system of the next data set is SNB-75. Put plainly: NCI60 screen cytotoxicity. Particulars: Homo sapiens, CNS, read-out: Compound B1 EC50. Type of data set: cell-based.
The next data set has as its system MM1.S. The data set can be described thus: Cell viability, ATPlite 1-step, MM cell lines. Particulars: Homo sapiens; MM1.S MM cell line; 48 hours; read-out: Compound EC50. Type of data set: cell-based. As to the method:
Cell Viability. The assay was performed only when cell viability was ≥90%. Cells were seeded in 96-well white clear bottom plates at concentration of 100,000 cells/mL and treated with serially diluted compounds or vehicle (DMSO) control in triplicates for 48 hours (h). Cell viability was determined using the ATPlite 1-step assay system (PerkinElmer). The method was based on the production of light caused by the reaction of ATP, which was a marker for cell viability. […] were added to the plates which were read in a plate reader for luminescence. The emitted light is proportional to the ATP concentration. Viability was calculated as the percent of viable cells from control vehicle-treated cells. EC50 was calculated using Prism software.
Potency of compounds were assessed by viability assay.
(ATP-based viability assays read luminescence as a measure of living cells.)

Data set [5] can be described thus: Kinetic solubility by differential UV absorbance. Type of data set: physicochemical. Particulars: aqueous buffer, kinetic from dmso stock; DMSO stock diluted in PBS, OD before and after centrifugation. On the procedure: FIG. 3A-3B depict the kinetic solubility of Compound B1 (FIG. 3A) and Compound E1 (FIG. 3B) as measured by differential UV absorbance of the compounds, as performed before and after centrifugation. Soluble concentrations were determined when OD was equivalent between centrifuged and non-centrifuged fractions. Compounds were dissolved from co-solvent stock, and further serially 2-fold diluted in PBS. OD was measured at the maximal absorbance for each compound before (BC) and after (AC) centrifugation, using Spark 20M, Tecan.
Kinetic solubility quantification. Compound B1/Compound E1 DMSO stock was diluted with PBS by serial 2-fold dilutions. Then, the samples were centrifuged for 5 minutes at 17,000 g to precipitate any insoluble compound. Each sample was tested at a single wave length (Compound B1 at […]; Compound E1 at […]) in duplicate before and after centrifugation to assess solubility of the compound. Soluble concentrations were determined when optical density (OD) was equivalent between centrifuged and non-centrifuged fractions.
Kinetic solubility of all Compounds was determined by differential UV absorbance before and after centrifugation. […] Solubility concentration was determined when OD was equivalent between centrifuged and non-centrifuged fractions (FIG. 3A-3B).

As for `CN(C)CCCS(=O)(=O)N1C/C(=C\c2ccc(C#N)cc2)C(=O)/C(=C/c2ccc(C#N)cc2)C1` [Compound AA], the pEC50 (in general, the EC50 on a negative log10 scale, so that one unit is a factor of ten) in the data set on EKVX was 6.00 to 6.52; in the data set with HOP-62 it was 6.00 to 6.52; in the data set with KM-12 it was greater than 6.52; in the data set with M14, greater than 6.52; with NCI-H23 it was 6.00 to 6.52; in the data set on NCI-H522 it was greater than 6.52. The pEC50 was greater than 6.52 in the data set on SF-295, greater than 6.52 in the data set on SN12C [1], greater than 6.52 with U251 and 6.00 to 6.52 in the data set on UACC-257 [2].
For `CN(C)CC(=O)NCC(=O)N1C/C(=C\c2ccc(C#N)cc2)C(=O)/C(=C/c2ccc(C#N)cc2)C1` [Compound B1], the pEC50 in the data set on MDA-MB-468 was greater than 6.52; in the data set on MOLT-4 it was greater than 6.52; in the data set on HOP-92 it was 6.00 to 6.52; in the data set on 786-0, 6.00 to 6.52; in the data set with ACHN, greater than 6.52; with SN12C [3] it was greater than 6.52. The pEC50 was greater than 6.52 in the data set with PC-3; greater than 6.52 with MDA-MB-435; 6.00 to 6.52 with SK-MEL-5; 6.00 to 6.52 in the data set with UACC-257 [4]; 6.00 to 6.52 in the data set with UACC-62; 6.00 to 6.52 with SNB-75. Moreover, the negative-log EC50 (pEC50) in the data set on MM1.S was greater than 6.52. The solubility (kinetic) – broadly, solubility judged after dilution from a stock solution rather than from solid – in data set [5] amounted to 50 µM (≈ 23.4 µg/mL).
